The numbers were not newly measured in patent US9114169B2, “Sweetening and healthy compositions and methods associated therewith” (priority 2013, dated 2015), which cites them from elsewhere.

The conditions of series [1]: fold longer than resveratrol.
For series [2] the following is noted: fold greater than resveratrol.
The conditions of series [3]: compared with resveratrol.
The conditions of series [4]: compared with resveratrol. The source holds these as a separate data set.

For the compound `COc1cc(/C=C/c2ccc(O)cc2)cc(OC)c1` [Pterostilbene, pterostilbene], the “half-life in the human body relative to resveratrol” value in series [1] is given as “seven”. In addition, in series [2], the “cellular uptake relative to resveratrol” value is 2-4 times. For the same compound, the “absorption relative to resveratrol” value in series [3] is on record as “greater absorption”. Besides, in series [4], the “metabolic stability relative to resveratrol” value is on record as “greater”.
